Our source for the melting point values is patent US12077503B2, “Substituted cyclic amides and their use as herbicides” (FMC CORPORATION, priority 2015, dated 2024).

As a reminder, the melting point is the temperature, or range, at which the solid turns liquid.

Structures are written as SMILES.

`COc1ccc([C@H]2CN(C)C(=O)[C@@H]2C(=O)Nc2ccccc2F)cc1` [Compound 1342]: the melting point was 103 to 107 °C. Consider `CSc1ccccc1NC(=O)[C@H]1C(=O)NC[C@@H]1c1ccc(C(F)(F)F)cn1` [Compound 1050], for which the melting point lay in the range of 66 to 70 °C.
